Measurements as given in patent US20230241041A1, “LURBINECTEDIN IN THE TREATMENT OF MALIGNANT MESOTHELIOMA” (PHARMA MAR, S.A., priority 2019, published 2023).

Columns and labels:
[1] = test system: progressive malignant pleural mesothelioma (MPM); experiment: Phase II single-arm, multi-centric trial of lurbinectedin monotherapy: efficacy (PFS, OS, response); format: in vivo, human
Protocol: In order to evaluate the efficacy of lurbinectedin in the treatment of progressive malignant pleural mesothelioma (MPM), a Phase II single-arm, multi-centric, international trial was performed.
(§1) The primary endpoint was progression-free survival at 12 weeks (PFS12wks), defined as the absence of progression or death due to any cause during the first 12 weeks (±2 weeks) after registration. Secondary endpoints included progression-free survival (PFS), defined as the time from registration until radiologic progression or death due to any cause, whichever occurs first; overall survival (OS), defined as the time from registration until death due to any cause; objective response rate (ORR), defined as the proportion of patients who achieved complete (CR) or partial remission (PR) during the trial treatment; disease control rate (DCR) defined as the sum of CR, PR and stable disease (SD) at least for 12 weeks (SD≥12wks); duration of disease control, defined as the time from registration to progression or death due to any cause whichever occurs first for patients who had CR, PR or SD≥12wks; and adverse events (AE). All AEs were assessed according to NCI CTCAE v4.03. Patients lost to follow-up were censored at the last date they were known to be alive.
This trial was conducted in 6 centers in Switzerland and 3 in Italy. Subjects enrolled in this clinical trial were adult (age ≥ 18 years) patients having histologically or cytologically confirmed MPM, an Eastern Cooperative Oncology Group (ECOG) status of 0-1 and had progressed on or after one line of platinum-pemetrexed chemotherapy without being amenable to local treatment. Further inclusion criteria required an adequate hepatic, renal and bone marrow function (absolute neutrophil count ≥ 2 × 10^9 /L, platelet count ≥ 100 × 10^9 /L; aspartate aminotransferase and alanine aminotransferase ≤ 3.0 × ULN; creatinine clearance ≥ 30 mL/min/1.73).
Eligible patients could additionally have received one prior line of immunotherapy, but more than one lines of chemotherapy, including pemetrexed rechallenge, were not allowed. Further exclusion criteria covered known brain metastases or leptomeningeal disease, history of other hematologic or primary solid tumors within five years prior to registration (with the exception of curatively treated basal or squamous cell carcinoma of the skin, properly treated in situ malignant melanoma, in situ carcinoma of the uterine cervix or pT1-2 prostate cancer with Gleason score ≤6), concomitant use of anti-cancer surgery or radiotherapy (except for local pain control or pleurodesis) and adverse events Grade ≥2 derived from previous treatment.
(§2) Lurbinectedin was given every 3 weeks at a dose of 3.2 mg/m^2 as a 1-hour intravenous infusion through peripheral or central lines. Standard antiemetic prophylaxis (corticosteroids or serotonin (5-HT3) antagonists) was administered prior to chemotherapy. […] In case of third re-emergence of Grade 3-4 toxicity treatment was permanently discontinued. Specifically for leucopenia Grade 3-4 and/or febrile neutropenia there was mandatory secondary G-CSF prophylaxis together with dose reduction by one level.
(§3) Patients were followed clinically and with laboratory tests at time of chemotherapy administration and additionally with contrast enhanced CT- or PET/CT scans every 6 weeks. […] In case of treatment discontinuation for any reason, adverse events were reported for 30 days after last treatment application. For those cases where lurbinectedin was stopped without manifest progression radiology scans were performed every 8 weeks during the follow-up period otherwise patients were followed-up via telephone every 12 weeks for survival status.
A Simon two-stage design was used as presented by Simon R. (Control Clin Trials. 1989 Mar;10(1):1-10). We had set our null-hypothesis p0 at PFS12wks ≤35%, translated to a median PFS of ≤ 2 months. […]

[2] = Phase II trial of lurbinectedin monotherapy: adverse events (NCI CTCAE v4.03) and tolerability; format: in vivo
Text: as §1
as §2, with “Lurbinectedin was given every 3 weeks at a dose of 3.2 mg/m^2 as a 1-hour intravenous infusion through peripheral or central lines.” left out
as §3

Molecule: COc1ccc2[nH]c3c(c2c1)CCN[C@]31CS[C@@H]2c3c(OC(C)=O)c(C)c4c(c3[C@H](COC1=O)N1[C@@H]2[C@H]2c3c(cc(C)c(OC)c3O)C[C@@H]([C@@H]1O)N2C)OCO4 (stereo in doubt) [lurbinectedin]
- patients with disease control lasting for 8 months or longer ([1]; 6/22 patients): 27.3%
- median OS ([1]; <6 months progression-free interval on prior pemetrexed): 8.8 months
- median OS ([1]; >=6 months progression-free interval on prior pemetrexed): 13.3 months
- PFS12wks ([1]; additional prior immunotherapy): 70%
- median OS ([1]; additional prior immunotherapy): 10.4 months
- median PFS ([1]; additional prior immunotherapy): 3.2 months
- DCR ([1]; all 42 patients): 52.4%
- ORR ([1]; all 42 patients): 4.8%
- complete remission (CR) ([1]; all 42 patients): One
- partial remission (PR) ([1]; all 42 patients): one
- stable disease ([1]; all 42 patients): 20 patients
- PFS12wks (primary endpoint) reached ([1]; all patients, 22/42, 90% CI 38.7-63.5, p=0.015): 52.4%
- PFS12wks, Kaplan-Meier method at 12 weeks ([1]; all patients, 90% CI 49.7-74.4): 63.5%
- median PFS ([1]; all patients, 95% CI 2.6-5.5, median follow-up 14.9 months): 4.1 months
- 9 months PFS% ([1]; all patients, 95% CI 4.7-24.9): 12.7%
- median OS ([1]; all patients, 95% CI 8.8-14.7): 11.1 months
- 6 months PFS% ([1]; all patients, 95% CI 17.1-44.9): 30.5%
- 12 months OS ([1]; all patients, 95% CI 28.1-60.3): 44.9%
- 3 months PFS% ([1]; all patients, 95% CI 41.8-71.7): 58.4%
- 6 months OS ([1]; all patients, 95% CI 57.7-84.6): 73.8%
- PFS12wks ([1]; epithelioid histology): 63.6%
- median OS ([1]; epithelioid histology): 12.4 months
- median PFS ([1]; epithelioid histology): 4.1 months
- PFS12wks reached (interim analysis) ([1]; first 21 patients, Simon 2-stage, 11 patients): 52.4%
- PFS12wks ([1]; non-epithelioid histology): 62.5%
- median OS ([1]; non-epithelioid histology): 10.0 months
- median PFS ([1]; non-epithelioid histology): 3.7 months
- patients who had died at the time of analyses ([1]; of 42, progression 23, viral pneumonitis 1, suicide 1, heart failure 1): 26 patients
- median duration of disease control ([1]; patients with CR, PR or SD>=12wks, 95% CI 5.2-7.4): 6.6 months
- PFS12wks ([1]; prior chemotherapy alone): 61.4%
- median OS ([1]; prior chemotherapy alone): 11.9 months
- median PFS ([1]; prior chemotherapy alone): 4.1 months
- median PFS ([1]; progressed on previous platinum-pemetrexed in >=6 months): 4.3 months
- PFS12wks ([1]; progressed on previous platinum-pemetrexed in >=6 months (28 patients)): 67.9%
- median PFS ([1]; progressed on previous platinum-pemetrexed within <6 months): 3.0 months
- PFS12wks ([1]; progressed on previous platinum-pemetrexed within <6 months (14 patients)): 53.8%
- AEs ([2]; Grade 5, N = 42): 0 (0.0%) n (%)
- Lurbinectedin-related AEs ([2]; Grade 5, N = 42): 0.0 (0.0%) n (%)
- treatment-related death ([2]; N=42): no treatment-related death
- Abdominal pain, lurbinectedin-related AE ([2]; human, in vivo): 1 (2.4%) n (%)
- Alkaline phosphatase increased, lurbinectedin-related AE ([2]; human, in vivo): 1 (2.4%) n (%)
- Aspartate aminotransferase increased, lurbinectedin-related AE ([2]; human, in vivo): 2 (4.8%) n (%)
- Blood bilirubin increased, lurbinectedin-related AE ([2]; human, in vivo): 3 (7.1%) n (%)
- Cholangitis, lurbinectedin-related AE ([2]; human, in vivo): 1 (2.4%) n (%)
- Confusion, lurbinectedin-related AE ([2]; human, in vivo): 1 (2.4%) n (%)
- Cough, lurbinectedin-related AE ([2]; human, in vivo): 1 (2.4%) n (%)
- Creatinine increased, lurbinectedin-related AE ([2]; human, in vivo): 1 (2.4%) n (%)
- Diarrhea, lurbinectedin-related AE ([2]; human, in vivo): 3 (7.1%) n (%)
- Dizziness, lurbinectedin-related AE ([2]; human, in vivo): 2 (4.8%) n (%)
- Dry skin, lurbinectedin-related AE ([2]; human, in vivo): 2 (4.8%) n (%)
- Dysgeusia, lurbinectedin-related AE ([2]; human, in vivo): 1 (2.4%) n (%)
- Dyspepsia, lurbinectedin-related AE ([2]; human, in vivo): 1 (2.4%) n (%)
- Dysphagia, lurbinectedin-related AE ([2]; human, in vivo): 1 (2.4%) n (%)
- Edema limbs, lurbinectedin-related AE ([2]; human, in vivo): 1 (2.4%) n (%)
- Febrile neutropenia, lurbinectedin-related AE ([2]; human, in vivo): 4 (9.5%) n (%)
- Flu like symptoms, lurbinectedin-related AE ([2]; human, in vivo): 1 (2.4%) n (%)
- Halitosis, lurbinectedin-related AE ([2]; human, in vivo): 1 (2.4%) n (%)
- Headache, lurbinectedin-related AE ([2]; human, in vivo): 1 (2.4%) n (%)
- Hypertension, lurbinectedin-related AE ([2]; human, in vivo): 1 (2.4%) n (%)
- Hypomagnesemia, lurbinectedin-related AE ([2]; human, in vivo): 5 (11.9%) n (%)
- Infection of unknown origin, lurbinectedin-related AE ([2]; human, in vivo): 1 (2.4%) n (%)
- Infections with unknown origine, lurbinectedin-related AE ([2]; human, in vivo): 1 (2.4%) n (%)
- Insomnia, lurbinectedin-related AE ([2]; human, in vivo): 1 (2.4%) n (%)
- Lung infection, lurbinectedin-related AE ([2]; human, in vivo): 1 (2.4%) n (%)
- Memory impairment, lurbinectedin-related AE ([2]; human, in vivo): 1 (2.4%) n (%)
- Pancytopenia, lurbinectedin-related AE ([2]; human, in vivo): 1 (2.4%) n (%)
- Productive cough, lurbinectedin-related AE ([2]; human, in vivo): 1 (2.4%) n (%)
- Skin infection, lurbinectedin-related AE ([2]; human, in vivo): 1 (2.4%) n (%)
- Superficial thrombophlebitis, lurbinectedin-related AE ([2]; human, in vivo): 1 (2.4%) n (%)
- Urea increased, lurbinectedin-related AE ([2]; human, in vivo): 1 (2.4%) n (%)
- Vertigo, lurbinectedin-related AE ([2]; human, in vivo): 1 (2.4%) n (%)
- Watering eyes, lurbinectedin-related AE ([2]; human, in vivo): 1 (2.4%) n (%)
- Weight loss, lurbinectedin-related AE ([2]; human, in vivo): 2 (4.8%) n (%)
- White blood cell decreased, lurbinectedin-related AE ([2]; human, in vivo): 3 (7.1%) n (%)
- all other Grade 3-4 lurbinectedin-related toxicities ([2]; human, in vivo): < 10%
- dose reductions for which AEs were the reason ([2]; human, in vivo): 91.7%
- fatigue, lurbinectedin-related AE Grade 3-4 ([2]; human, in vivo): 16.7%
- febrile neutropenia ([2]; human, in vivo): 9.5%
- herpes zoster, lurbinectedin-related AE ([2]; human, in vivo): 1 (2.4%) n (%)
- neutropenia, lurbinectedin-related AE Grade 3-4 ([2]; human, in vivo): 23.8%
- patients showing no lurbinectedin-related AEs ([2]; human, in vivo): AE: adverse event; ^1: 4 patients (9.5%) showed no lurbinectedin-related AEs
- patients with at least one adverse event (AE) of any grade ([2]; human, in vivo): 100%
- patients with at least one dose reduction ([2]; human, in vivo): 28.6%
- patients with lurbinectedin-related AEs Grade 3-4 ([2]; human, in vivo): 47.6%
- patients with treatment delayed at least once ([2]; human, in vivo): 50%
- patients with treatment related AEs (any grade) ([2]; human, in vivo): 90.5%
- patients with two dose reductions ([2]; human, in vivo): 2/42
- treatment delay caused by AEs ([2]; human, in vivo): 26.2%
- Mucositis oral, lurbinectedin-related AE ([2]; human, in vivo, po): 1 (2.4%) n (%)
- treatment discontinuation due to toxicity ([2]; in vivo): no treatment discontinuation due to toxicity

B1: G-CSF: granulocyte colony-stimulating factor, given as prophylaxis for leucopenia/febrile neutropenia (protein, UniProt P09919 31-207, looked up)
Granulocyte …: TPLGPASSLPQSFLLKCLEQVRKIQGDGAALQEKLVSECATYKLCHPEELVLLGHSLGIPWAPLSSCPSQALQLAGCLSQLHSGLFLYQGLLQALEGISPELGPTLDTLQLDVADFATTIWQQMEELGMAPALQPTQGAMPAFASAFQRRAGGVLVASHLQSFLEVSYRVLRHLAQP
- incidence of grade 3-4 neutropenia ([2]; G-CSF given in patients on lurbinectedin): diminished
